#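 Test compounds were applied to cells in 96-well plates for 48 hours at 5 doses. At the GI50, growth is halved. TGI is the concentration that stops growth completely.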
# Legend:
# Experiment in all cases: NCI tumour cell line growth inhibition, 48 h
# T-47D breast = tested on: T-47D breast
# CCRF-CEM leukemia = tested on: CCRF-CEM leukemia
# MDA-MB-231 breast = tested on: MDA-MB-231 breast
# 786-0 renal = tested on: 786-0 renal
# OVCAR-4 ovarian = tested on: OVCAR-4 ovarian
# RPMI-8226 leukemia = tested on: RPMI-8226 leukemia
# HT29 colon = tested on: HT29 colon
# HS 578T breast = tested on: HS 578T breast
# COLO 205 colon = tested on: COLO 205 colon
# NCI-H23 lung = tested on: NCI-H23 lung
# CAKI-1 renal = tested on: CAKI-1 renal
# TK-10 renal = tested on: TK-10 renal
# HL-60(TB) leukemia = tested on: HL-60(TB) leukemia
# SNB-75 CNS = tested on: SNB-75 CNS
# U251 CNS = tested on: U251 CNS
# UACC-62 melanoma = tested on: UACC-62 melanoma
# HOP-62 NSCLC = tested on: HOP-62 NSCLC
# UACC-257 melanoma = tested on: UACC-257 melanoma
# OVCAR-8 ovarian = tested on: OVCAR-8 ovarian
# SK-MEL-2 melanoma = tested on: SK-MEL-2 melanoma
# MALME-3M melanoma = tested on: MALME-3M melanoma
# HCC-2998 colon = tested on: HCC-2998 colon
# SK-MEL-28 melanoma = tested on: SK-MEL-28 melanoma
# SW-620 colon = tested on: SW-620 colon
# SNB-19 CNS = tested on: SNB-19 CNS
# HCT-15 colon = tested on: HCT-15 colon
# MDA-MB-435 = tested on: MDA-MB-435
# SK-MEL-5 melanoma = tested on: SK-MEL-5 melanoma
# SF-268 CNS = tested on: SF-268 CNS
# HCT-116 colon = tested on: HCT-116 colon
# IGROV1 ovarian = tested on: IGROV1 ovarian
# RXF 393 renal = tested on: RXF 393 renal
# NCI/ADR-RES ovarian = tested on: NCI/ADR-RES ovarian
# A498 renal = tested on: A498 renal
# BT-549 breast = tested on: BT-549 breast
# LOX IMVI melanoma = tested on: LOX IMVI melanoma
# OVCAR-5 ovarian = tested on: OVCAR-5 ovarian
# SF-295 CNS = tested on: SF-295 CNS
# DU-145 prostate = tested on: DU-145 prostate
# KM12 colon = tested on: KM12 colon
# EKVX NSCLC = tested on: EKVX NSCLC
# M14 melanoma = tested on: M14 melanoma
# MCF7 breast = tested on: MCF7 breast
# MOLT-4 leukemia = tested on: MOLT-4 leukemia
# OVCAR-3 ovarian = tested on: OVCAR-3 ovarian
# SN12C renal = tested on: SN12C renal
# SF-539 CNS = tested on: SF-539 CNS
# ACHN renal = tested on: ACHN renal
# SR leukemia = tested on: SR leukemia
# NCI-H226 lung = tested on: NCI-H226 lung
# NCI-H522 lung = tested on: NCI-H522 lung
# NCI-H460 lung = tested on: NCI-H460 lung
# K-562 leukemia = tested on: K-562 leukemia
# SK-OV-3 ovarian = tested on: SK-OV-3 ovarian
# PC-3 prostate = tested on: PC-3 prostate
# UO-31 renal = tested on: UO-31 renal
# A549 NSCLC = tested on: A549 NSCLC
smiles,measurement,setting,value
CN1CCN(Cc2ccc(NC(=O)c3cncc(C#Cc4cnc5ccc(N6CCOCC6)nn45)c3)cc2C(F)(F)F)CC1,GI50,T-47D breast,199 nM
same,TGI,T-47D breast,2620 nM
same,GI50,CCRF-CEM leukemia,125 nM
same,TGI,CCRF-CEM leukemia,5980 nM
same,GI50,MDA-MB-231 breast,33 nM
same,TGI,MDA-MB-231 breast,204 nM
same,GI50,786-0 renal,144 nM
same,TGI,786-0 renal,433 nM
same,GI50,OVCAR-4 ovarian,99.1 nM
same,TGI,OVCAR-4 ovarian,543 nM
same,GI50,RPMI-8226 leukemia,153 nM
same,TGI,RPMI-8226 leukemia,553 nM
same,GI50,HT29 colon,31.3 nM
same,TGI,HT29 colon,392 nM
same,GI50,HS 578T breast,85.3 nM
same,TGI,HS 578T breast,353 nM
same,GI50,COLO 205 colon,53.6 nM
same,TGI,COLO 205 colon,129 nM
same,GI50,NCI-H23 lung,79.6 nM
same,TGI,NCI-H23 lung,325 nM
same,GI50,CAKI-1 renal,51.9 nM
same,TGI,CAKI-1 renal,174 nM
same,GI50,TK-10 renal,79.9 nM
same,TGI,TK-10 renal,229 nM
same,GI50,HL-60(TB) leukemia,23.9 nM
same,TGI,HL-60(TB) leukemia,224 nM
same,GI50,SNB-75 CNS,47.7 nM
same,TGI,SNB-75 CNS,155 nM
same,GI50,U251 CNS,141 nM
same,TGI,U251 CNS,558 nM
same,GI50,UACC-62 melanoma,86.3 nM
same,TGI,UACC-62 melanoma,419 nM
same,GI50,HOP-62 NSCLC,100 nM
same,TGI,HOP-62 NSCLC,328 nM
same,GI50,UACC-257 melanoma,160 nM
same,TGI,UACC-257 melanoma,936 nM
same,GI50,OVCAR-8 ovarian,134 nM
same,TGI,OVCAR-8 ovarian,541 nM
same,GI50,SK-MEL-2 melanoma,68 nM
same,TGI,SK-MEL-2 melanoma,144 nM
same,GI50,MALME-3M melanoma,37.2 nM
same,TGI,MALME-3M melanoma,153 nM
same,GI50,HCC-2998 colon,130 nM
same,TGI,HCC-2998 colon,474 nM
same,GI50,SK-MEL-28 melanoma,122 nM
same,TGI,SK-MEL-28 melanoma,433 nM
same,GI50,SW-620 colon,49.7 nM
same,TGI,SW-620 colon,378 nM
same,GI50,SNB-19 CNS,163 nM
same,TGI,SNB-19 CNS,686 nM
same,GI50,HCT-15 colon,112 nM
same,TGI,HCT-15 colon,375 nM
same,GI50,MDA-MB-435,53.3 nM
same,TGI,MDA-MB-435,231 nM
same,GI50,SK-MEL-5 melanoma,225 nM
same,TGI,SK-MEL-5 melanoma,814 nM
same,GI50,SF-268 CNS,82.3 nM
same,TGI,SF-268 CNS,218 nM
same,GI50,HCT-116 colon,26.3 nM
same,TGI,HCT-116 colon,342 nM
same,GI50,IGROV1 ovarian,46.8 nM
same,TGI,IGROV1 ovarian,430 nM
same,GI50,RXF 393 renal,78.6 nM
same,TGI,RXF 393 renal,175 nM
same,GI50,NCI/ADR-RES ovarian,814 nM
same,TGI,NCI/ADR-RES ovarian,3750 nM
same,GI50,A498 renal,97.5 nM
same,TGI,A498 renal,189 nM
same,GI50,BT-549 breast,259 nM
same,TGI,BT-549 breast,763 nM
same,GI50,LOX IMVI melanoma,59.3 nM
same,TGI,LOX IMVI melanoma,142 nM
same,GI50,OVCAR-5 ovarian,85.8 nM
same,TGI,OVCAR-5 ovarian,548 nM
same,GI50,SF-295 CNS,140 nM
same,TGI,SF-295 CNS,686 nM
same,GI50,DU-145 prostate,93.6 nM
same,TGI,DU-145 prostate,398 nM
same,GI50,KM12 colon,5 nM
same,TGI,KM12 colon,243 nM
same,GI50,EKVX NSCLC,101 nM
same,TGI,EKVX NSCLC,564 nM
same,GI50,M14 melanoma,50.6 nM
same,TGI,M14 melanoma,122 nM
same,GI50,MCF7 breast,26.9 nM
same,TGI,MCF7 breast,442 nM
same,GI50,MOLT-4 leukemia,95.8 nM
same,TGI,MOLT-4 leukemia,1460 nM
same,GI50,OVCAR-3 ovarian,99.4 nM
same,TGI,OVCAR-3 ovarian,407 nM
same,GI50,SN12C renal,49.5 nM
same,TGI,SN12C renal,300 nM
same,GI50,SF-539 CNS,60 nM
same,TGI,SF-539 CNS,205 nM
same,GI50,ACHN renal,131 nM
same,TGI,ACHN renal,510 nM
same,GI50,SR leukemia,97.2 nM
same,TGI,SR leukemia,367 nM
same,GI50,NCI-H226 lung,23.9 nM
same,TGI,NCI-H226 lung,320 nM
same,GI50,NCI-H522 lung,68 nM
same,TGI,NCI-H522 lung,161 nM
same,GI50,NCI-H460 lung,84.5 nM
same,TGI,NCI-H460 lung,254 nM
same,GI50,K-562 leukemia,5 nM
same,TGI,K-562 leukemia,1900 nM
same,GI50,SK-OV-3 ovarian,144 nM
same,TGI,SK-OV-3 ovarian,405 nM
same,GI50,PC-3 prostate,145 nM
same,TGI,PC-3 prostate,1040 nM
same,GI50,UO-31 renal,135 nM
same,TGI,UO-31 renal,359 nM
same,GI50,A549 NSCLC,121 nM
same,TGI,A549 NSCLC,555 nM

# — PubChem BioAssay (NCI)
